Key:
[1] = test system: experimental autoimmune encephalomyelitis (EAE); details: animals undergoing EAE; cited from earlier work
[2] = molecular target: T1, human-Arginase-1 (Homo sapiens, UniProt P05089); assay: Urea production in CHOK cells stably transfected with human-Arginase-1; type: cell-based; details: IC50 class, 5 mM arginine, 24 hours, read-out: CHOK Cell
T1 construct: expressed in transfected cells; host or cells: CHOK cells
T1 sequence (P05089 1-322): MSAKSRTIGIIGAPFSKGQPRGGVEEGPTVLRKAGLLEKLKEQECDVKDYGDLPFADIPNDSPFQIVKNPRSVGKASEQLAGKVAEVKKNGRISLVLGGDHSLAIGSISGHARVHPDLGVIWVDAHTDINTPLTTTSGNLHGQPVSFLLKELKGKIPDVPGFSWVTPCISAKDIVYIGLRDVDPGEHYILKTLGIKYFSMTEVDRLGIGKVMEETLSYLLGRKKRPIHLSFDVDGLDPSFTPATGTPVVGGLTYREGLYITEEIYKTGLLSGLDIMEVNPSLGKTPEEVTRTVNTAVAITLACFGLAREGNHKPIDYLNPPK
Method: Table 3 also provides CHOK cell based IC50 values for illustrative arginase inhibitors. IC50 values were determined by measuring the production of urea in CHOK cells stably transfected with human-Arginase-1.
Briefly, CHOK cells were stably transfected with human-arginase-1. To determiner the IC50 values for compounds in accordance with the present invention, parental CHOK cells and arginase-1 stably transfected cells were plated in a 96 well plate. Cells were plated using 200 μl of complete growth medium and incubated overnight at 37° C.
Media from each of the wells containing cells was first removed and growth media supplemented with arginine at a concentration of 5 mM was added to each well. The test compounds were dissolved in PBS buffer to the desired concentration and added to appropriate wells. The plate was then incubated at 37° C. for 24 hours. After 24 hours the plates were spun down at 3000 RPM for 5 min and 50 μl of the media were transferred to a new plate.
An aqueous solution of o-phthaldehyde, Brij, sulfuric acid, primaquine diphosphate and boric acid was added to each well and the plate was incubated for 10-15 minutes. The urea concentration in each well was determined by measuring the optical density at 520-530 nanometers using a standard curve. The IC50 values were calculated by measuring urea production at various concentrations of the inventive arginase inhibitors after subtracting the value related to the concentration of urea in control wells.

[3] = molecular target: T2, human arginase I (ARG I) (Homo sapiens, UniProt P05089); assay: Inhibition of arginase I, spectrophotometric urea assay at 530 nm
T2 sequence (P05089 1-322): T1 sequence (P05089 1-322)
Method: (§1) Inhibition of arginase I (ARG I) and arginase II (ARG II) by the inventive compounds is followed spectrophotometrically at 530 nm. […] Solutions of arginase I and II are prepared in 100 mM sodium phosphate buffer, pH 7.4 containing 1 mg/ml of OVA to give an arginase stock solution at a final concentration of 100 ng/ml.
(§2) To each well of a 96-well microtiter plate is add 40 μl of enzyme, 10 μl of an inventive compound and 10 μl of enzyme substrate (L-arginine+ manganese sulfate). For wells that are used as positive controls, only the enzyme and its substrate are added, while wells used as negative controls contain only manganese sulfate.
(§3) After incubating the microtiter plate at 37° C. for 60 minutes, 150 μl of a urea reagent obtained by combining equal proportions (1:1) of reagents A and B is added to each well of the microtiter plate to stop the reaction. The urea reagent is made just before use by combining Reagent A (10 mM o-phthaldialdehyde, and 0.4% polyoxyethylene (23) lauryl ether (w/v) in 1.8 M sulfuric acid) with Reagent B (1.3 mM primaquine diphosphate, 0.4% polyoxyethylene (23) lauryl ether (w/v), 130 mM boric acid in 3.6 M sulfuric acid). After quenching the reaction mixture, the microtiter plate is allowed to stand for an additional 10 minutes at room temperature to allow color development. […] The normalized OD is then used to generate a dose-response curve by plotting the normalized OD values against log [concentration] and using regression analysis to compute the IC50 values.

[4] = molecular target: T3, arginase II (ARG II) (Homo sapiens, UniProt P78540); assay: Inhibition of arginase II, spectrophotometric urea assay at 530 nm
T3 sequence (P78540 23-354): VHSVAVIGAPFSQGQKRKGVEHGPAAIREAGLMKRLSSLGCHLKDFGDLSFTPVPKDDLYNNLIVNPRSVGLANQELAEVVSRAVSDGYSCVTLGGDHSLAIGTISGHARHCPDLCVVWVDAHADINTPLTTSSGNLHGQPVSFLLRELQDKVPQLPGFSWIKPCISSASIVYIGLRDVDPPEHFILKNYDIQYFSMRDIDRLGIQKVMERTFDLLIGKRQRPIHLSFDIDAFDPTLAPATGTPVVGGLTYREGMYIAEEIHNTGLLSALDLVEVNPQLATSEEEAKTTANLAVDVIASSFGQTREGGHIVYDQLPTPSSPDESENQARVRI
Method: as §1, §2, §3

[5] = test system: bacterial arginase; details: cited from earlier work
[6] = test system: murine chronic model; details: cited from earlier work
[7] = test system: spontaneously hypertensive animals; details: cited from earlier work

| IC50 [2] [nM] | IC50 [3] [nM] | IC50 [4] [nM] | Structure (SMILES) | also measured |
| --- | --- | --- | --- | --- |
|  |  |  | NC(CCCCB(O)O)C(=O)O (stereo not drawn) [ABH, amino-6-boronohexanoic acid] | form of EAE developed versus control animals [1]: much milder form of EAE |
| 26000 to 100000 | 0.1 to 25 | 0.1 to 25 | NC(CCCCB(O)O)(C(=O)O)[C@H]1C[C@@H](NCc2ccc3c(c2)Cc2ccccc2-3)C1 (stereo partly drawn) [Example 24, (S)-2-((1s,3R)-3-((9H-fluoren-2-yl)methylamino)cyclobutyl)-2-amino-6-boronohexanoic acid] |  |
| 26000 to 100000 | 26 to 100 | 26 to 100 | NC(CCCCB(O)O)(C(=O)O)[C@H]1C[C@@H](NCc2ccccc2-c2ccc(C(F)(F)F)cc2)C1 (stereo partly drawn) [Example 25, (S)-2-amino-6-borono-2-((1s,3R)-3-((4′-(trifluoromethyl)biphenyl-2-yl)methylamino)cyclobutyl)hexanoic acid] |  |
| 26000 to 100000 | 0.1 to 25 | 26 to 100 | NC(CCCCB(O)O)(C(=O)O)[C@H]1C[C@@H](NCc2ccc(C3CCCCC3)cc2)C1 (stereo partly drawn) [Example 26, (S)-2-amino-6-borono-2-((1s,3R)-3-(4-cyclohexylbenzylamino)cyclobutyl)hexanoic acid] |  |
| 26000 to 100000 | 101 to 500 | 501 to 1500 | NC(CCCCB(O)O)(C(=O)O)[C@H]1C[C@@H](N(Cc2ccccc2)Cc2ccccc2)C1 (stereo partly drawn) [Example 27, (S)-2-amino-6-borono-2-((1s,3R)-3-(dibenzylamino)cyclobutyl)hexanoic acid] |  |
| 1000 to 25000 | 101 to 500 | 101 to 500 | CNC(CCCCB(O)O)(CCN1Cc2ccccc2C1)C(=O)O (stereo not drawn) [Example 30, 6-borono-2-(2-(isoindolin-2-yl)ethyl)-2-(methylamino)hexanoic acid] |  |
| 26000 to 100000 | 101 to 500 | 101 to 500 | CNC(CCCCB(O)O)(CCN1CCC(C)CC1)C(=O)O (stereo not drawn) [Example 33, 6-borono-2-(methylamino)-2-(2-(4-methylpiperidin-1-yl)ethyl)hexanoic acid] |  |
| 26000 to 100000 | 101 to 500 | 101 to 500 | CNC(CCCCB(O)O)(CCNCc1ccc(Cl)c(Cl)c1)C(=O)O (stereo not drawn) [Example 35, 6-borono-2-(2-(3,4-dichlorobenzylamino)ethyl)-2-(methylamino)hexanoic acid] |  |
| 1000 to 25000 | 101 to 500 | 101 to 500 | CNC(CCCCB(O)O)(CCN1CCC(c2ccccc2)CC1)C(=O)O (stereo not drawn) [Example 36, 6-borono-2-(methylamino)-2-(2-(4-phenylpiperidin-1-yl)ethyl)hexanoic acid] |  |
| 1000 to 25000 | 26 to 100 | 101 to 500 | NC(CCCCB(O)O)(CCCN1Cc2ccccc2C1)C(=O)O (stereo not drawn) [Example 39, 2-amino-6-borono-2-(3-(isoindolin-2-yl)propyl)hexanoic acid] |  |
| 1000 to 25000 | 26 to 100 | 101 to 500 | NC(CCCCB(O)O)(CCCN1CCc2c(Cl)cccc2C1)C(=O)O (stereo not drawn) [Example 40, 2-amino-6-borono-2-(3-(5-chloro-3,4-dihydroisoquinolin-2(1H)-yl)propyl)hexanoic acid] |  |
| 1000 to 25000 | 101 to 500 | 101 to 500 | NC(CCCCB(O)O)(CCCN1CCc2ccccc2C1)C(=O)O (stereo not drawn) [Example 41, 2-amino-6-borono-2-(3-(3,4-dihydroisoquinolin-2(1H)-yl)propyl)hexanoic acid] |  |
| 26000 to 100000 | 26 to 100 | 26 to 100 | NC(CCCCB(O)O)(C(=O)O)[C@H]1CC[C@@H](NCc2ccc(-c3ccccc3)cc2)C1 (stereo partly drawn) [Example 44] |  |
| 1000 to 25000 | 0.1 to 25 | 0.1 to 25 | NC(CCCCB(O)O)(C(=O)O)[C@H]1C[C@@H](NCc2ccc(-c3ccc(Cl)cc3)cc2F)C1 (stereo partly drawn) [Example 49, (S)-2-amino-6-borono-2-((1s,3R)-3-((4′-chloro-3-fluorobiphenyl-4-yl)methylamino)cyclobutyl)hexanoic acid] |  |
| 26000 to 100000 | 0.1 to 25 | 26 to 100 | NC(CCCCB(O)O)(C(=O)O)[C@H]1C[C@@H](NCCCc2ccc(C(F)(F)F)cc2)C1 (stereo partly drawn) [Example 56, (S)-2-amino-6-borono-2-((1s,3R)-3-(3-(4-(trifluoromethyl)phenyl)propylamino)cyclobutyl)hexanoic acid] |  |
| 26000 to 100000 | 26 to 100 | 26 to 100 | NC(CCCCB(O)O)(C(=O)O)C1CC2CCC(C1)N2Cc1ccc(OC(F)(F)F)cc1 (stereo not drawn) [Example 64, 2-amino-6-borono-2-(8-(4-(trifluoromethoxy)benzyl)-8-azabicyclo[3.2.1]octan-3-yl)hexanoic acid] |  |
| 1000 to 25000 | 501 to 1500 | 101 to 500 | CCN(CCO)CC[C@](N)(CCCCB(O)O)C(=O)O [Example 67, (R)-2-amino-6-borono-2-(2-(ethyl(2-hydroxyethyl)amino)ethyl)hexanoic acid] |  |
| 1000 to 25000 | 101 to 500 | 101 to 500 | CCN(CC)CC[C@](N)(CCCCB(O)O)C(=O)O [Example 68, (R)-2-amino-6-borono-2-(2-(diethylamino)ethyl)hexanoic acid] |  |
|  |  |  | NC(=NCCC[C@H](N)C(=O)O)NO [NOHA] | CD3 expression on T-cells [5]: reestablished; production of NO by macrophages [5]: enhanced |
|  |  |  | N[C@@H](CSCCB(O)O)C(=O)O [S-(2-boronoethyl)-L-cysteine] | methacholine induced responsiveness of the central airways [6]: attenuated |
|  |  |  | N=C(NO)NCC[C@H](N)C(=O)O [nor-NOHA, N^ω-hydroxy-nor-L-arginine] | blood pressure [7]: lowered; vascular response of resistance vessels to blood flow and pressure [7]: improved |

| Structure (SMILES) | IC50 [2] [nM] | IC50 [3] [nM] | IC50 [4] [nM] | also measured |
| --- | --- | --- | --- | --- |
| NC(CCCCB(O)O)(C(=O)O)C1CC2CCC(C1)N2Cc1ccc(Cl)cc1 [Example 45, 2-amino-6-borono-2-{(1R,5S)-8-(4-chlorobenzyl)-8-aza-bicycli[3.2.1]-octan-3-yl}-hexanoic acid] | 1000 to 25000 | 0.1 to 25 | 26 to 100 |  |
| NC(CCCCB(O)O)(C(=O)O)C1CC2CCC(C1)N2Cc1ccc(Cl)c(Cl)c1 [Example 46, 2-Amino-6-borono-2-{(1R,5S)-8-(3,4-dichlorobenzyl)-8-aza-bicycli[3.2.1]-octan-3-yl}-hexanoic acid] | 1000 to 25000 | 0.1 to 25 | 0.1 to 25 |  |
| NC(CCCCB(O)O)(C(=O)O)C1CC2CCC(C1)N2 (stereo not drawn) [Example 61, 2-amino-2-(8-azabicyclo[3.2.1]octan-3-yl)-6-boronohexanoic acid] | 1000 to 25000 | 26 to 100 | 26 to 100 |  |
| NC(CCCCB(O)O)(C(=O)O)C1CC2CCC(C1)N2Cc1ccccc1 (stereo not drawn) [Example 62, 2-amino-2-(8-benzyl-8-azabicyclo[3.2.1]octan-3-yl)-6-boronohexanoic acid] | 1000 to 25000 | 0.1 to 25 | 26 to 100 |  |
| NC(CCCCB(O)O)(C(=O)O)C1CC2CCC(C1)N2Cc1ccc(F)c(F)c1 (stereo not drawn) [Example 63, 2-amino-6-borono-2-(8-(3,4-difluorobenzyl)-8-azabicyclo[3.2.1]octan-3-yl)hexanoic acid] | 1000 to 25000 | 0.1 to 25 | 26 to 100 |  |

— patent US9266908B2, “Inhibitors of arginase and their therapeutic applications” (MARS, INCORPORATED, priority 2011, dated 2016)
